Laboratory results reported in article PMC6956158, “In Vitro and In Vivo Assessment of Metabolic Drug Interaction Potential of Dutasteride with Ketoconazole” (Pharmaceutics, 2019).
Where two headings read alike, the source gives them in different places.

Legend:
[1] = NADPH-dependent metabolism (disappearance) of DUT in rat liver microsomes; type: in vitro ADME; conditions: RLM
Method: In vitro metabolism studies in RLM and HLM were conducted as previously reported with slight modifications. To investigate the NADPH-dependent metabolism (via phase I enzymes including CYPs) of DUT in RLM and HLM, the disappearance of DUT at various concentrations ranging from 1 to 100 μM in the presence of NADPH was determined in RLM and HLM. The substrate (DUT) concentration ([S]; μM) versus the initial metabolic rate (V; pmol/min/mg protein) data were interpreted based on the Michaelis–Menten kinetics, and relevant parameters were estimated by nonlinear regression analysis (GraphPad Prism ver. 5.01; GraphPad Software, San Diego, CA, USA) based on the following Michaelis–Menten equation: V = Vmax × [S]/Km + [S] where Vmax and Km are the maximal metabolic rate and Michaelis–Menten constant, respectively. The intrinsic metabolic clearance (CLint) was calculated by dividing Vmax by Km. The unbound Km (Km,u) was calculated as the Km multiplied by the unbound fraction in microsomes (fu,mic). The unbound CLint (CLint,u) was calculated as the CLint divided by the fu,mic.
To investigate the metabolic interaction potential between DUT and KET, the disappearance of DUT (5 μM) in RLM and HLM was determined under the absence and presence of KET at various concentrations ranging from 1 to 5000 nM. A microsomal reaction mixture was prepared as follows (total volume: 0.2 mL): 1 mM NADPH, 10 mM MgCl2, substrate (DUT), and inhibitor (KET), RLM or HLM (1 mg/mL), and 50 mM phosphate buffer. […] The unbound fractions of DUT in rat plasma, RLM, human plasma, and HLM were measured using a rapid equilibrium dialysis (RED) device (Thermo Fisher Scientific, Inc., Waltham, MA, USA) as described in a previous study. […] The fraction unbound was calculated as the ratio of the drug concentrations in the “buffer” chamber to those in the “sample” chamber. The blood-to-plasma concentration ratio (RB) of DUT was determined as described previously. […] The concentrations of DUT in the plasma sample were determined by the validated HPLC analysis.

[2] = In vivo pharmacokinetic study in rats, intravenous DUT without or with intravenous KET; parameters: species or system rat; conditions: for AUC(0-inf) / half-life / clearance / Vd: male, Sprague-Dawley, rat, iv, 2.5 mg/kg; for AUC(0-inf) / half-life: n = 4; for Vd: n = 4, read-out: Vss
Excerpt: The animal experiment protocols used in the present study were approved by the Pusan National University-Institutional Animal Care and Use Committee for scientific care and ethical procedures (Busan, Korea; approval date: 01/05/2018; approval number: PNU-2018-1848). Male Sprague–Dawley rats (8-week-old; approximately 250 g) were purchased from DBL Co., Ltd. (Incheon, Korea). The rats were acclimatized in a clean room of the Laboratory Animal Center of Pusan National University (Busan, Korea) for 1 week. Then, they were fasted for 12 h prior to the pharmacokinetic experiment and then anesthetized by intramuscular injection of Zoletil at a dose of 20 mg/kg. The femoral vein and artery of the rats were cannulated with a polyethylene tube (BD Medical; Franklin Lakes, NJ, USA). At approximately 4–6 h after the surgery for cannulation, an intravenous dose of DUT (2.5 mg/kg) simultaneously with or without intravenous KET (20 mg/kg) or an oral dose of DUT (5 mg/kg) simultaneously with or without intravenous KET (20 mg/kg) was administered to the rats. Drugs were dissolved in a vehicle consisting of dimethyl sulfoxide, ethanol, and polyethylene glycol 400 at a ratio of 10:5:85 (v/v/v). Blood (approximately 200 μL) was collected in heparin pre-treated microcentrifuge tubes via the femoral artery at 0, 1, 5, 15, 30, 60, 120, 180, 240, 360, 480, and 1200 min after the intravenous dose and at 0, 5, 15, 30, 60, 120, 150, 180, 240, 360, 480, and 1200 min after the oral dose. Following centrifugation of the blood samples at 3000× g at 4 °C for 10 min [19], 100 μL aliquots of plasma were stored at −80 °C.
The half maximal inhibitory concentration (IC50) of KET for the inhibition of the DUT metabolism was determined by the nonlinear regression analysis (GraphPad Prism ver. 5.01; GraphPad Software Inc., San Diego, CA, USA) based on the following Hill equation: y = Min + Max−Min/1 + (x/IC50)^-P where Max and Min are the initial and final y value, respectively, and the exponent P represents the Hill coefficient. Peak plasma concentration (Cmax) and time to reach Cmax (Tmax) were read directly from the observed data. Non-compartmental analysis was conducted to estimate pharmacokinetic parameters such as total area under plasma concentration versus time curve from time zero to time of last sampling (AUClast), total area under plasma concentration versus time curve from time zero to infinity (AUCinf), total plasma clearance (CL), volume of distribution at steady state (Vss), and terminal half-life (t1/2) using the NCA200 and 201 models of WinNonlin ver. 3.1 (Certara USA Inc., Princeton, NJ, USA).

[3] = Unbound fraction by rapid equilibrium dialysis, HLM; type: in vitro ADME, human
Method: To investigate the metabolic interaction potential between DUT and KET, the disappearance of DUT (5 μM) in RLM and HLM was determined under the absence and presence of KET at various concentrations ranging from 1 to 5000 nM. A microsomal reaction mixture was prepared as follows (total volume: 0.2 mL): 1 mM NADPH, 10 mM MgCl2, substrate (DUT), and inhibitor (KET), RLM or HLM (1 mg/mL), and 50 mM phosphate buffer. At 0 and 90 min after starting the metabolic reaction, a 50 μL aliquot of microsomal incubation mixture was sampled and immediately transferred into a clean 1.5 mL microcentrifuge tube containing 100 μL cold ACN with an internal standard (celecoxib at 400 ng/mL) to stop the metabolic reaction. After vortex mixing and centrifugation at 15,000× g for 10 min, a 100 μL aliquot of the supernatant was stored at −80 °C. The unbound fractions of DUT in rat plasma, RLM, human plasma, and HLM were measured using a rapid equilibrium dialysis (RED) device (Thermo Fisher Scientific, Inc., Waltham, MA, USA) as described in a previous study. […] The fraction unbound was calculated as the ratio of the drug concentrations in the “buffer” chamber to those in the “sample” chamber. The blood-to-plasma concentration ratio (RB) of DUT was determined as described previously. […] The concentrations of DUT in the plasma sample were determined by the validated HPLC analysis.

[4] = plasma, intravenous DUT 2.5 mg/kg with intravenous KET 20 mg/kg
[5] = plasma, intravenous DUT 2.5 mg/kg, DUT alone

Compound: C[C@]12C=CC(=O)N[C@@H]1CC[C@@H]1[C@@H]2CC[C@]2(C)[C@@H](C(=O)Nc3cc(C(F)(F)F)ccc3C(F)(F)F)CC[C@@H]12 [DUT, Dutasteride]
- Vmax ([1]; DUT 1 to 100 μM, NADPH): 114 ± 10 pmol/min/mg protein
- microsomal CLint ([1]; Sprague-Dawley, rat, rat liver microsomes, Vmax divided by Km): 3.45 ± 0.37 µL/min/mg
- Km ([1]; rat, rat liver microsomes, DUT 1 to 100 μM, NADPH): 33.3 ± 3.6 µM
- hepatic extraction ratio ([2]; calculated as CLH/QH, QH 50–80 mL/min/kg): 0.039–0.062
- AUC(0-inf) [2, 4]: 41800 ng·h/mL
- half-life [2, 4]: 51 ± 5.98 h
- clearance ([2]; plasma, intravenous DUT 2.5 mg/kg with intravenous KET 20 mg/kg, n = 4, read-out: CL): 1.02 ± 0.16 mL/min/kg
- Vd [2, 4]: 4.41 ± 0.373 L/kg
- AUC(0-inf) [2, 5]: 19100 ng·h/mL
- half-life [2, 5]: 26.8 ± 3.27 h
- clearance ([2]; plasma, intravenous DUT 2.5 mg/kg, DUT alone, n = 4, read-out: CL): 2.19 ± 0.16 mL/min/kg
- Vd [2, 5]: 4.9 ± 0.326 L/kg
- clearance ([2]; whole blood, intravenous DUT 2.5 mg/kg, calculated as CL/RB, mean value, read-out: total blood clearance (CLB)): 3.08 mL/min/kg
- fraction of unbound DUT, presence versus absence of KET ([3]; DUT and KET 5 μM, n = 5): no significant differences
- fraction unbound at 5 μM ([3]; human, human liver microsomes, DUT 5 μM, RED device): 0.091
